In the supplement of paper PMC3937590:

Assays:
Test in all cases: -log10 GI50 (growth inhibition 50%) (-log10(M)); higher = more potent growth inhibition
184A1 = system: 184A1
Procedure, shortened: (§1)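 The reported figure is the negative logarithm of GI50, defined as the molar concentration that produces the set level of growth inhibition. The logarithm is base 10. It comes from a Gompertz curve fitted by nonlinear least squares to 72-hour luminescence data from breast cancer cell lines given nine doses in 1:5 serial dilution, in triplicate, with a time-zero plate as reference. A < qualifier marks values equal to the top dose.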

BT483 = system: BT483
Procedure, shortened: as §1

CAMA1 = system: CAMA1
Procedure, shortened: as §1

HCC1187 = system: HCC1187
Procedure, shortened: as §1

HCC1395 = system: HCC1395
Procedure, shortened: as §1

HCC3153 = system: HCC3153
Procedure, shortened: as §1

HS578T = system: HS578T
Procedure, shortened: as §1

MCF10F = system: MCF10F
Procedure, shortened: as §1

MCF12A = system: MCF12A
Procedure, shortened: as §1

MDAMB415 = system: MDAMB415
Procedure, shortened: as §1

MDAMB453 = system: MDAMB453
Procedure, shortened: as §1

SUM1315MO2 = system: SUM1315MO2
Procedure, shortened: as §1

SUM149PT = system: SUM149PT
Procedure, shortened: as §1

SUM185PE = system: SUM185PE
Procedure, shortened: as §1

SUM52PE = system: SUM52PE
Procedure, shortened: as §1

T47D = system: T47D
Procedure, shortened: as §1

UACC812 = system: UACC812
Procedure, shortened: as §1

ZR751 = system: ZR751
Procedure, shortened: as §1

184B5 = system: 184B5
Procedure, shortened: as §1

-log10 GI50 (BT483)	-log10 GI50 (HCC1187)	-log10 GI50 (HCC1395)	-log10 GI50 (HCC3153)	-log10 GI50 (MDAMB415)	-log10 GI50 (MDAMB453)	-log10 GI50 (T47D)	SMILES	-log10 GI50 (184A1)	-log10 GI50 (CAMA1)	-log10 GI50 (HS578T)	-log10 GI50 (MCF10F)	-log10 GI50 (MCF12A)	-log10 GI50 (SUM1315MO2)	-log10 GI50 (SUM149PT)	-log10 GI50 (SUM185PE)	-log10 GI50 (SUM52PE)	-log10 GI50 (UACC812)	-log10 GI50 (ZR751)	-log10 GI50 (184B5)
6.8	6.84	5.61	5.54	6.26	6.52	6.95	O=C1NC(=O)/C(=C/c2ccc3nccc(-c4ccncc4)c3c2)S1	7.78	5.77	5.74	6.71	6.38	6.49	6.01	7.13	6.82	6.62	5.99	
< 3.78	< 3.78	4.15	< 3.78	< 3.78	< 3.78	4.74	COc1cc2ncnc(Nc3cccc(Cl)c3)c2cc1OC [AG1478]		4.46	4.06	6.69	7.16	6.08	5.93	< 3.78	< 3.78		< 3.78	
	5.25	5.86	5.48		5.55	5.55	O=C(c1ccc(Nc2nccc(-c3cc4ccccc4s3)n2)cc1)N1CCC(N2CCCC2)CC1 [IKK 16]	6.05	5.57	5.53	5.37	5.39	5.81	5.82		5.94	5.09	5.29	5.83
5.47	4.36	4.37	< 3.78	4.47	4.47	< 3.78	CC/C(=C(\c1ccccc1)c1ccc(OCCN(C)C)cc1)c1ccccc1 [Tamoxifen]	< 3.78	4.46	< 3.78	< 3.78	4.89	4.46	4.11	5.05	4.28		< 3.78	
7.38	6.51	7.82	6.68	6.73	7.07		CC[C@@]1(O)C(=O)OCc2c1cc1n(c2=O)Cc2cc3c(CN(C)C)c(O)ccc3nc2-1 [Topotecan]	6.88	6.4	4.8	6.67	7.58	8.08		7.2	8.08	7.3	7.16	7.16

Second part, the molecule before the results:

SMILES	-log10 GI50 (BT483)	-log10 GI50 (HCC1187)	-log10 GI50 (HCC1395)	-log10 GI50 (HCC3153)	-log10 GI50 (MDAMB415)	-log10 GI50 (MDAMB453)	-log10 GI50 (T47D)	-log10 GI50 (184A1)	-log10 GI50 (CAMA1)	-log10 GI50 (HS578T)	-log10 GI50 (MCF10F)	-log10 GI50 (MCF12A)	-log10 GI50 (SUM1315MO2)	-log10 GI50 (SUM149PT)	-log10 GI50 (SUM185PE)	-log10 GI50 (SUM52PE)	-log10 GI50 (UACC812)	-log10 GI50 (ZR751)	-log10 GI50 (184B5)
CC(=O)Nc1cccc(-n2c(=O)n(C3CC3)c(=O)c3c(Nc4ccc(I)cc4F)n(C)c(=O)c(C)c32)c1	< 4.78	< 4.78	6.71	< 4.78	6.19	6.64	< 4.78	8.67	< 4.78	7.47	8.06	8.68	7.19	7.64	4.9	6.92	< 4.78	< 4.78	
CCc1c2c(nc3ccc(OC(=O)N4CCC(N5CCCCC5)CC4)cc13)-c1cc3c(c(=O)n1C2)COC(=O)[C@]3(O)CC [CPT-11]	5.22	4.35	6	4.73	4.94	5.19	6.31	5.44	4.84	4.5	5.18	5.79	5.34		4.99	5.87	5.49	5.44	5.66
COc1cccc2c1C(=O)c1c(O)c3c(c(O)c1C2=O)C[C@@](O)(C(=O)CO)C[C@@H]3O[C@H]1C[C@H](N)[C@H](O)[C@H](C)O1 [Doxorubicin]	7	7.3	6.6	6.48	6.52	6.67	7.37	6.95	6.58	6.31	6.64	7.34	6.73		6.51	7.01	7.12	6.87	
COc1cccc2c1C(=O)c1c(O)c3c(c(O)c1C2=O)C[C@@](O)(C(=O)CO)C[C@@H]3O[C@H]1C[C@H](N)[C@@H](O)[C@H](C)O1 [Epirubicin]	6.78	6.33	6.14	6.19	6.58	6.66		6.68		6.44	6.32	7.26	7.44	6.66	6.39	7.42		6.6	8.25
O=c1[nH]cc(F)c(=O)[nH]1 [Fluorouracil]	4.48	4.04	3.18	3.45	3.66	4.02		3.88	3.51	4.34	5.37	4.82	3.37	4.14	2.53	4.65	4.34	4.52	< 1.72
Nc1ccn([C@@H]2O[C@H](CO)[C@@H](O)C2(F)F)c(=O)n1 [Gemcitabine]		5.07	6.47	7.19	6.05		6.02	6.16	6.79	5.66	7.08	7.17	6.91	7.84	6.44		7.75	7.45	6.14
CCC1=C[C@@H]2CN(C1)Cc1c([nH]c3ccccc13)[C@@](C(=O)OC)(c1cc3c(cc1OC)N(C)[C@H]1[C@@](O)(C(=O)OC)[C@H](OC(C)=O)[C@]4(CC)C=CCN5CC[C@]31[C@@H]54)C2 [Vinorelbine]	8.14	7.64	8.45	7.29	7.73	8.8	5.34		7.88	7.99	7.75	7.91	8.65	7.85	8.08	7.97	7.13	7.37	
